Assay [1] concerns synthesis of the arachidonic acid cyclooxygenase oxidation product TxB2. Nature of the assay: Inhibition of TxB2 synthesis (cyclooxygenase product) by rat polymorphonuclear leukocytes. It counts as cell-based, rat (female Wistar). Particulars: Leukocyte, A23187-stimulated rat PMN.
Assay [2] relates to bronchospasm induced in guinea pigs by endogenous mediators of the bronchoconstriction. The assay is described as follows: Ovalbumin-induced bronchospasm in guinea pigs. It is filed as in vivo, guinea pig (Hartley). Particulars: Cavia porcellus; intraduodenally administered, 10 minutes before intravenously administered ovalbumin challenge. The procedure:
The assay of this Example measures the in vivo ability of the compounds in the scope of the invention to inhibit the bronchospasm induced in guinea pigs by endogenous mediators of the bronchoconstriction.
Male Hartley strain guinea pigs weighing 250-350 g are sensitized to chicken ovalbumin (OA) (10 mg i.p.) on days 1 and 3 and used starting on day 26. The animals are anesthetized with pentobarbital sodium (50 mg/kg, i.p.), bilateral vagotomy is performed, and the jugular vein is cannulated for injection of drugs and the carotid artery for monitoring blood pressure. The trachea is cannulated for artificial ventilation by miniature Starling pump and for indirect measurement of respiratory volume changes as described, infra. Succinylcholine (2 mg/kg, i.v.) is administered to arrest spontaneous respiration. […]
Respiratory volume changes are determined by a calibrated piston whose travel is recorded, via a linear transducer, on a Beckman Dynograph recorder. Maximal bronchoconstrictor volume is determined by clamping off the trachea at the end of the experiment. Overflow volumes at minutes 1, 3 and 5 are obtained from the recorded charts.
Area under the volume overflow curve (AUC) is estimated, using the overflow values at 1, 3 and 5 minutes, and expressed as a percentage of the maximal overflow AUC (equation 1): [formula] […]

Assay [3] deals with AA-induced mouse ear edema. Nature of the assay: Arachidonic acid (AA)-induced murine ear edema test. It counts as in vivo, mouse (Swiss Webster). Particulars: 1 mg/ear, 30 min prior to AA, measured 1 h after AA.
Assay [4] concerns rat carrageenan paw edema. Nature of the assay: Rat carrageenan paw edema. It counts as in vivo, rat (Sprague-Dawley). Particulars: at 50 mg/kg (peroral), 1 h prior to carrageenan; 3 h. Here is the method:
The compounds in the scope of the invention are further tested in the rat carrageenan paw edema to determine their ability to inhibit the acute inflammatory response.
[…] male Sprague-Dawley rats, in groups of 6 animals are injected subcutaneously in the right paw with 0.1 ml of 1% carrageenan at zero time. Mercury plethysmographic readings (ml) of the paw are made at zero time and 3 hours later. Test compounds are suspended or dissolved in 0.5% methylcellulose and given perorally 1 hour prior to carrageenan administration.
The increase in paw volume (edema in ml.) produced by the carrageenan is measured. Paw edema is calculated (3 hour volume minus zero time volume), and percent inhibition of edema is determined. Unpaired Student's t-test is used to determine statistical significance.
A general note: Carrageenan injected into the paw causes an acute inflammation.

The source of these data is patent US4788304A, “Phospholipase A2 inhibitors” (American Home Products Corporation, priority 1987, dated 1988).

Usually inhibition stands for the relative decrease from the control value, in per cent. A low value points to a response near the control. As usually defined, the ED50 is the dose that gives a 50% effect, or the effect in half of the subjects. High values mean weaker potency, low ones greater potency. In turn, `COC(=O)C1(C(=O)CCCCOc2ccc(Cl)cc2)CO1` (stereo not shown) [Example 6A, 2-[5-(4-Chlorophenoxy)-1-oxopentyl]-2-oxiranecarboxylic acid methyl ester] gave an inhibition at 10 µM in assay [1] of 30%. For the same compound, the ED50 in assay [2] came to 13.5 mg/kg. For the same compound, in assay [3], the “Mouse Ear Edema Assay, % Change from Control, TOPICAL, AA” value was -38%. Also, in assay [4], the “% Inhibition of paw edema” value is listed as 50%.
